Measurements reported in patent US11648254B2 (Kumquat Biosciences Inc., priority 2021, dated 2023).
Where two headings read alike, the source gives them in different places.

What was measured:
[1] = system: NCI-H1975 cells (EGFR T790M L858R); test: EGFR-SOS cellular inhibition assay (CellTiter-Glo, 3D); type: cell-based; settings: Homo sapiens
[2] = Metabolic (microsomal) stability assay; type: in vitro ADME; settings: mouse liver microsomes, T1/2; read-out: DMPK-invitro-metabolic Stability (Mouse T1/2)
Excerpt: Example 12: Metabolic (Microsomal) Stability Assay

[3] = In vitro plasma protein binding (PPB); type: in vitro ADME; settings: percentage of free/unbound compound
SOS1 = SOS1 (Homo sapiens (Human), UniProt Q07889); test: Ras-SOS interaction assay (HTRF); type: biochemical
SOS1, sequence (Q07889 564-1049): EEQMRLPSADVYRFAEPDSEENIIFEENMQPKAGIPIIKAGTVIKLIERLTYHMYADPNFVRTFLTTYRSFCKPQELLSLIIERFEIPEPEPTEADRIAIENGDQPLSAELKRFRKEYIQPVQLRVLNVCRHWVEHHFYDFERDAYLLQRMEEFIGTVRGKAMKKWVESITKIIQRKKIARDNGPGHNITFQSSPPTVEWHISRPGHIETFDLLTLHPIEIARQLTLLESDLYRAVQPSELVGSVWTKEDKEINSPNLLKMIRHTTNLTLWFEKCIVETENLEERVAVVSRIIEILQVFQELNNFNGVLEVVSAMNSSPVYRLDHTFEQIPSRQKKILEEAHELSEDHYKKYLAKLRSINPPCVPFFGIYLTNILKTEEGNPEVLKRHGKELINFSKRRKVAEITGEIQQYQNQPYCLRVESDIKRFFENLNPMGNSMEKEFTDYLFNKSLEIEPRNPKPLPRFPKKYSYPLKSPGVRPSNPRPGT

[4] = system: ERK phosphorylation (p-ERK 1/2 Thr202/Tyr204) in MIA PaCa-2 or NCI-H1975 cells; test: ERK phosphorylation assay (AlphaLISA p-ERK 1/2); type: cell-based; settings: MIA PaCa-2 cells or EGFR mutant NCI-H1975 cells; read-out: IC50 for the inhibition of ERK phosphorylation
Experimental: MIA PaCa-2 cells (ATCC CRL-1420) expressing K-Ras G12C is grown in DMEM/Ham's F12 medium supplemented with 10% fetal calf serum, glutamine and ˜2.5% horse serum. Alternatively, other cell lines with aberrant Ras signaling output can be utilized. Non-limiting exemplary cell lines include NCI-H358 and H1975. Cells are plated in 96-well plates at a concentration of 40,000 cells/well and allowed to attach for at least 8 hours. Following, diluted solutions of test inhibitor compounds are added to the cell culture. After ˜2 hours of incubation, the medium is removed and lysis buffer from AlphaLISA® SureFire® Ultra™ p-ERK 1/2 (Thr202/Tyr204) assay kit (Perkin Elmer ALSU-PERK-A10K) is added to the cells. The plate is agitated for 10 min at room temperature and 10 μL of the lysate is transferred to a 384-well Optiplate™ (Perkin Elmer) for assay. Thereafter ˜5 μL of Acceptor Mix from the p-ERK AlphaLISA assay kit is added to wells and plate is sealed with adhesive film. The samples are incubated for one hour at room temperature. Following, 5 μL of Donor Mix is added to the wells and plate is re-sealed with adhesive film, and incubated for one hour at room temperature. The plate is then read on a multimode microplate reader (e.g., SPARK©Tecan) equipped with Alpha detection module. The data can be fitted to four-parameter dose-response curve using Prism version 9 (GraphPad) to calculate an IC50 for the inhibition of ERK phosphorylation. […] 355, 332, 366, 216, 264, 356, 266, in an ERK phosphorylation assay utilizing either MIA PaCa-2 cells (ATCC CRL-1420) or EGFR mutant cell line (NCI-H1975 (ATCC CRL-5908)).

[5] = system: MIA PaCa-2 cells (K-Ras G12C); test: Ras-SOS cellular growth inhibition assay (CellTiter-Glo, 3D); type: cell-based; settings: Homo sapiens
Summary of the method: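 MIA PaCa-2 cells grown in ultra-low-attachment plates (3D) in DMEM/Ham's F12 with 10% FCS and 2.5% horse serum, treated the day after seeding with a 9-point 3-fold compound series for about 5 days. Viability by CellTiter-Glo luminescence; IC50 from four-parameter fit.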

[6] = 120 h, NCI-H1975, 3D proliferation, about 5 days, read-out: Bio-Cell-Prolif-3D (H1975 IC50)
[7] = NCI-H1975, EGFR T790M L858R, read-out: IC50 in inhibiting growth of NCI-H1975 cell line
[8] = K-RasG13D utilized, read-out: IC50 inhibition of SOS
[9] = K-RasG13D, read-out: IC50 value against SOS1
[10] = MIA PaCa-2, 120 h, MIA PaCa-2, 3D proliferation, about 5 days, read-out: Bio-Cell-Prolif-3D (MiaPaca2 IC50)
[11] = MIA PaCa-2, MIA PaCa-2, read-out: IC50 in inhibiting MIA PaCa-2 cell growth

| SMILES | IC50 [1, 6] | IC50 [1, 7] | half-life [2] | DMPK-invitro-PPB (Mouse Unbound) [%] [3] | IC50 (SOS1; [8]) | IC50 (SOS1; [9]) | IC50 [4] | IC50 [5, 10] | IC50 [5, 11] |
| --- | --- | --- | --- | --- | --- | --- | --- | --- | --- |
| COc1nc2ncnc(N[C@H](C)c3cccc(C(F)(F)[C@@H](C)O)c3)c2cc1C1(C#N)CC1 [Compound 264, 1-(4-(((R)-1-(3-((R)-1,1-difluoro-2-hydroxypropyl)phenyl)ethyl)amino)-7-methoxypyrido[2,3-d]pyrimidin-6-yl)cyclopropane-1-carbonitrile] | ≤ 1 µM | < 0.5 µM | 0.918 h | 4.94% | < 0.1 µM | < 0.05 µM | < 1 µM | ≤ 1 µM | < 0.5 µM |
| COc1nc2ncnc(N[C@H](C)c3cccc(C(F)(F)C(C)(C)O)c3F)c2cc1C1(C#N)CC1 [Compound 356, (R)-1-(4-((1-(3-(1,1-difluoro-2-hydroxy-2-methylpropyl)-2-fluorophenyl)ethyl)amino)-7-methoxypyrido[2,3-d]pyrimidin-6-yl)cyclopropane-1-carbonitrile] | ≤ 1 µM | < 0.5 µM | > 3.33 h | 0.48% | < 0.1 µM | < 0.05 µM | < 1 µM | ≤ 1 µM | < 0.5 µM |
| COc1nc2ncnc(N[C@H](C)c3cccc(C(F)(F)C(C)(C)O)c3)c2cc1C1(C#N)CC1 [Compound 355, (R)-1-(4-((1-(3-(1,1-difluoro-2-hydroxy-2-methylpropyl)phenyl)ethyl)amino)-7-methoxypyrido[2,3-d]pyrimidin-6-yl)cyclopropane-1-carbonitrile] | ≤ 1 µM | < 0.5 µM | > 3.33 h | 0.89% | < 0.1 µM | < 0.05 µM | < 1 µM | ≤ 1 µM | < 0.5 µM |
| COc1nc2ncnc(N[C@H](C)c3cccc(C(F)(F)[C@@H](C)O)c3F)c2cc1C1(C#N)CC1 [Compound 329, 1-(4-(((R)-1-(3-((R)-1,1-difluoro-2-hydroxypropyl)-2-fluorophenyl)ethyl)amino)-7-methoxypyrido[2,3-d]pyrimidin-6-yl)cyclopropane-1-carbonitrile] | ≤ 1 µM | < 0.5 µM | 2 h | 2.72% | < 0.1 µM | < 0.05 µM |  | ≤ 1 µM | < 0.5 µM |
| COc1nc2ncnc(N[C@H](C)c3cccc(C(F)(F)[C@H](C)O)c3)c2cc1C1(C#N)CC1 [Compound 266, 1-(4-(((R)-1-(3-((S)-1,1-difluoro-2-hydroxypropyl)phenyl)ethyl)amino)-7-methoxypyrido[2,3-d]pyrimidin-6-yl)cyclopropane-1-carbonitrile] | ≤ 1 µM | < 0.5 µM |  |  | < 0.1 µM | < 0.05 µM | < 1 µM | ≤ 1 µM | < 0.5 µM |
| COc1nc2nc(C)nc(N[C@H](C)c3cccc(C(F)(F)[C@H](C)O)c3)c2cc1C1(C#N)CC1 [Compound 216, 1-(4-(((R)-1-(3-((S)-1,1-difluoro-2-hydroxypropyl)phenyl)ethyl)amino)-7-methoxy-2-methylpyrido[2,3-d]pyrimidin-6-yl)cyclopropane-1-carbonitrile] | ≤ 1 µM | < 0.5 µM |  |  | < 0.1 µM | < 0.05 µM | < 1 µM | ≤ 1 µM | < 0.5 µM |
| COc1nc2nc(C)nc(N[C@H](C)c3cccc(C(F)(F)C(C)(C)O)c3F)c2cc1C1(C#N)CC1 [Compound 207, (R)-1-(4-((1-(3-(1,1-difluoro-2-hydroxy-2-methylpropyl)-2-fluorophenyl)ethyl)amino)-7-methoxy-2-methylpyrido[2,3-d]pyrimidin-6-yl)cyclopropane-1-carbonitrile] | ≤ 1 µM | < 0.5 µM | > 3.33 h | 0.06% | < 0.1 µM | < 0.05 µM |  | ≤ 1 µM |  |
| COc1nc2ncnc(N[C@H](C)c3cccc(C(F)(F)[C@H](C)O)c3F)c2cc1C1(C#N)CC1 [Compound 327, 1-(4-(((R)-1-(3-((S)-1,1-difluoro-2-hydroxypropyl)-2-fluorophenyl)ethyl)amino)-7-methoxypyrido[2,3-d]pyrimidin-6-yl)cyclopropane-1-carbonitrile] | ≤ 1 µM | < 0.5 µM | 2.18 h | 2.34% | < 0.1 µM | < 0.05 µM |  | ≤ 1 µM | < 0.5 µM |
| COc1nc2nc(C)nc(N[C@H](C)c3cccc(C(F)(F)[C@@H](C)O)c3F)c2cc1C1(C#N)CC1 [Compound 332, 1-(4-(((R)-1-(3-((R)-1,1-difluoro-2-hydroxypropyl)-2-fluorophenyl)ethyl)amino)-7-methoxy-2-methylpyrido[2,3-d]pyrimidin-6-yl)cyclopropane-1-carbonitrile] | ≤ 1 µM | < 0.5 µM | 0.502 h | 0.3% | < 0.1 µM | < 0.05 µM | < 1 µM | ≤ 1 µM | < 0.5 µM |
| C[C@@H](Nc1ncnc2nc(Cl)c(C3(C#N)CC3)cc12)c1cccc(C(F)(F)F)c1F [Compound 354, (R)-1-(7-chloro-4-((1-(2-fluoro-3-(trifluoromethyl)phenyl)ethyl)amino)pyrido[2,3-d]pyrimidin-6-yl)cyclopropane-1-carbonitrile] | ≤ 1 µM | < 0.5 µM | > 3.33 h | 0.52% | < 0.1 µM |  |  | ≤ 1 µM | < 0.5 µM |
| COc1nc2nc(C)nc(N[C@H](C)c3cccc(C(F)(F)[C@H](C)O)c3F)c2cc1C1(C#N)CC1 [Compound 256, 1-(4-(((R)-1-(3-((S)-1,1-difluoro-2-hydroxypropyl)-2-fluorophenyl)ethyl)amino)-7-methoxy-2-methylpyrido[2,3-d]pyrimidin-6-yl)cyclopropane-1-carbonitrile] | ≤ 1 µM | < 0.5 µM | 0.62 h | 0.77% | < 0.1 µM | < 0.05 µM |  | ≤ 1 µM | < 0.5 µM |
| COc1nc2nc(C)nc(N[C@H](C)c3cccc(C(F)(F)C(C)(C)O)c3)c2cc1C1(C#N)CC1 [Compound 175, (R)-1-(4-((1-(3-(1,1-difluoro-2-hydroxy-2-methylpropyl)phenyl)ethyl)amino)-7-methoxy-2-methylpyrido[2,3-d]pyrimidin-6-yl)cyclopropane-1-carbonitrile] | ≤ 1 µM | < 0.5 µM | 3.31 h | 0.11% | < 0.1 µM | < 0.05 µM |  | ≤ 1 µM | < 0.5 µM |
| Cc1nc(N[C@H](C)c2cccc(C(F)(F)F)c2F)c2cc(C3(C#N)CC3)c(Cl)nc2n1 [Compound 300, (R)-1-(7-chloro-4-((1-(2-fluoro-3-(trifluoromethyl)phenyl)ethyl)amino)-2-methylpyrido[2,3-d]pyrimidin-6-yl)cyclopropane-1-carbonitrile] | ≤ 1 µM |  | 1.18 h | 0.47% | < 0.1 µM |  |  | ≤ 1 µM |  |
| Cc1nc(N[C@H](C)c2cccc(C(F)F)c2F)c2cc(C3(C#N)CC3)c(Cl)nc2n1 [Compound 352, (R)-1-(7-chloro-4-((1-(3-(difluoromethyl)-2-fluorophenyl)ethyl)amino)-2-methylpyrido[2,3-d]pyrimidin-6-yl)cyclopropane-1-carbonitrile] | ≤ 1 µM | < 0.5 µM | 0.517 h |  | < 0.1 µM | < 0.05 µM |  | ≤ 1 µM | < 0.5 µM |
